# Results taken from patent publication US20230092769A1 (SHANGHAI BENEMAE PHARMACEUTICAL CORPORATION, priority 2020, published 2023).
# Several values for one entry are separate records, joined by “and”; a condition that tells them apart may be missing. Equal entries are not always repeated.
# Tests used:
# Type in all cases: in vivo
# [1] = system: STZ-induced diabetic C57BL/6 mice; assay: Blood glucose after single dosing in STZ-induced diabetic C57BL/6 mice (Example 2); details: for blood glucose 15 min / blood glucose 30 min / blood glucose 60 min / blood glucose 120 min / blood glucose 180 min / blood glucose 240 min / AUC(0-120 min) of blood glucose / blood glucose 0 min: single s.c. dose; for blood glucose 0 min: pre-dose
# Description: Animals: Male C57BL/6 mice (n=70) were purchased from Shanghai Jihui Laboratory Animal Care Co., Ltd. Upon arrival, the mice were housed in an animal facility at Shanghai University of Medicine & Health Sciences, under constant temperature (20-24° C.) and humidity (40-70%). Housing was provided at 12:12-hour light-dark cycle.
# Active agents: Insulin glargine was obtained from Sanofi and stored at a temperature of 2-8° C. Beinaglutide having the sequence of […](SEQ ID NO: 1) was obtained from Benemae (beinaglutide injection, 2 mg/mL) and stored at 2-8° C.
# (§1) After one-week acclimation, the mice were fed with high fat diet with 60 kcal % fat (D12492, Research Diets) for 3 weeks before STZ injection. Diabetic model was induced with 5 consecutive days of multiple low-dose STZ injection (50 mg/kg, intraperitoneally; i.p.). During modeling period, the mice were fasted for 4 hours before STZ treatment each day. The STZ solution (5 mg/ml) was freshly prepared in 0.1 M sodium citrate buffer (pH 4.5) before use and injected within 10 minutes of preparation. Seven days later, the mice with non-fasted blood glucose between 16.7 mM and 27.7 mM were selected and randomized into different groups by blood glucose level and body weight. At 9 am (T=0 minute) of Day 1, the mice were subcutaneously administrated with vehicle, insulin glargine, beinaglutide, or a mixture of insulin glargine and beinaglutide, which were mixed immediately before injection (Table 3). After first injection, tail blood glucose levels were measured at various intervals after injection, at 15 minutes, 30 minutes, 60 minutes, 120 minutes, 180 minutes, and 240 minutes, respectively. Subsequently, the mice of four groups (No. 1, No. 2, No. 4, and No. 6) continued to receive multiple dosing for 4 weeks. Body weight was measured twice per week. On day 28, after blood glucose measurement, the mice were fasted for 6 hours from 9 am, followed by an oral glucose tolerance test (glucose solution: 1 g/kg, 10 ml/kg). The blood glucose was monitored at 0 minute (pre-glucose loading), 15 minutes, 30 minutes, 60 minutes and 120 minutes after glucose loading.
# [2] = Body weight change during 4-week multiple dosing in STZ-induced diabetic C57BL/6 mice; details: for body weight change Day 0 / body weight change Day 4 / body weight change Day 7 / body weight change Day 8 / body weight change Day 10 / body weight change Day 12 / body weight change Day 14 / body weight change Day 16 / body weight change Day 18 / body weight change Day 20 / body weight change Day 22 / body weight change Day 24 / body weight change Day 26 / body weight change Day 28: IGlar 5 U/kg s.c., 1st week bid, 2nd to 4th week tid; for body weight change Day 0: baseline
# Description: as §1
# [3] = system: STZ-induced diabetic C57BL/6 mice; assay: Oral glucose tolerance test (OGTT) on Day 28, STZ-induced diabetic C57BL/6 mice; set-up: OGTT blood glucose AUC: unit: mM·min
# Description: The mice fasted for about 6 hours were orally administrated with glucose solution (1 g/kg). Blood glucose was measured at indicated time points.
# as §1
# [4] = system: STZ-induced diabetic C57BL/6 mice; assay: Fasting blood glucose on Day 28 after 6 hours fasting, STZ-induced diabetic C57BL/6 mice; details: Day 28, 6 hours fasting, IGlar 5 U/kg multiple dosing
# Description: as §1, with “Subsequently, the mice of four groups (No. 1, No. 2, No. 4, and No. 6) continued to receive multiple dosing for 4 weeks.” left out, “On day 28, after blood glucose measurement, the mice were fasted for 6 hours from 9 am, followed by an oral glucose tolerance test (glucose solution: 1 g/kg, 10 ml/kg).” left out
# On Day 28, the fasting blood glucose was measured after 6 hours fasting.
# [5] = Insulin glargine 5 U/kg, group MEAN, n=6
# [6] = Insulin glargine 5 U/kg, group MEAN, n=6, listed as IGlar
# [7] = Insulin glargine 5 U/kg, individual animal
# [8] = Insulin glargine 10 U/kg, group MEAN, n=6
# [9] = Insulin glargine 10 U/kg, group MEAN, n=6, listed as IGlar
# [10] = Insulin glargine 10 U/kg, individual animal
substance,measurement,setting,value
insulin glargine,blood glucose 15 min,[1]; [5],25.35 mM
same,blood glucose 30 min,[1]; [5],16.95 mM
same,blood glucose 60 min,[1]; [5],6.07 mM
same,blood glucose 120 min,[1]; [5],7.02 mM
same,blood glucose 180 min,[1]; [5],11.80 mM
same,blood glucose 240 min,[1]; [5],18.83 mM
same,AUC(0-120 min) of blood glucose,"[1]; Insulin glargine 5 U/kg, group MEAN, n=6, in mM·min (unit assumed)",2864
same,AUC(0-120 min) of blood glucose,[1]; [6],significant reduction of blood glucose
same,blood glucose 60 min,[1]; [6],6.07 ± 0.43 mM
same,blood glucose 15 min,[1]; [7],23.4 mM and 25.7 mM and 26.6 mM and 24.1 mM and 26.3 mM and 26 mM
same,blood glucose 30 min,[1]; [7],19.7 mM and 8.7 mM and 17.9 mM and 16.6 mM and 21.2 mM and 17.6 mM
same,blood glucose 60 min,[1]; [7],6.4 mM and 6.2 mM and 5.9 mM (2×) and 5.4 mM and 6.6 mM
same,blood glucose 120 min,[1]; [7],5.6 mM and 7.5 mM and 12.2 mM and 4.4 mM and 7.8 mM and 4.6 mM
same,blood glucose 180 min,[1]; [7],10.8 mM and 14.1 mM and 17.2 mM and 8.9 mM and 11.5 mM and 8.3 mM
same,blood glucose 240 min,[1]; [7],18.8 mM and 23.2 mM and 23.5 mM and 16.7 mM and 17.7 mM and 13.1 mM
same,AUC(0-120 min) of blood glucose,"[1]; Insulin glargine 5 U/kg, individual animal, in mM·min (unit assumed)",2864 and 3072 and 3731 and 2489 and 3047 and 2409
same,blood glucose 0 min,[1]; [5],27.55 mM
same,blood glucose 0 min,[1]; [7],31.1 mM and 29.3 mM and 25.9 mM and 28.3 mM and 25.3 mM and 25.4 mM
same,blood glucose 15 min,[1]; [8],26.68 mM
same,blood glucose 30 min,[1]; [8],14.68 mM
same,blood glucose 60 min,[1]; [8],7.65 mM
same,blood glucose 120 min,[1]; [8],5.50 mM
same,blood glucose 180 min,[1]; [8],9.95 mM
same,blood glucose 240 min,[1]; [8],20.18 mM
same,AUC(0-120 min) of blood glucose,"[1]; Insulin glargine 10 U/kg, group MEAN, n=6, in mM·min (unit assumed)",3986
same,AUC(0-120 min) of blood glucose,[1]; [9],significant reduction of blood glucose
same,blood glucose 120 min,[1]; [9],5.50 ± 2.74 mM
same,blood glucose 180 min,[1]; [9],9.95 ± 5.22 mM
same,blood glucose 15 min,[1]; [10],24.4 mM (2×) and 23.6 mM and 30.3 mM and 29 mM and 28.4 mM
same,blood glucose 30 min,[1]; [10],17.3 mM and 10.6 mM and 3.1 mM and 11.1 mM and 26.1 mM and 19.9 mM
same,blood glucose 60 min,[1]; [10],9.6 mM and 5 mM and 7 mM and 5.2 mM and 13.3 mM and 5.8 mM
same,blood glucose 120 min,[1]; [10],10.8 mM and 4.2 mM and 5.4 mM and 3 mM and 5.3 mM and 4.3 mM
same,blood glucose 180 min,[1]; [10],19.3 mM and 9.4 mM and 6.1 mM and 5.8 mM and 6.7 mM and 12.4 mM
same,blood glucose 240 min,[1]; [10],26.4 mM and 16.1 mM and 15.4 mM and 14.3 mM and 19.3 mM and 29.6 mM
same,AUC(0-120 min) of blood glucose,"[1]; Insulin glargine 10 U/kg, individual animal, in mM·min (unit assumed)",3986 and 2308 and 2209 and 1991 and 3146 and 3254
same,blood glucose 0 min,[1]; [8],27.77 mM
same,blood glucose 0 min,[1]; [10],26.7 mM and 25.5 mM and 29 mM and 24.6 mM and 30.2 mM and 30.6 mM
same,blood glucose after a single administration (in words),"[1]; STZ-induced hyperglycemic mice, single s.c. administration",significantly reduced blood glucose
same,body weight change Day 0,[2]; group MEAN,0.0 g
same,body weight change Day 0,[2]; individual animal,0.0 g
same,body weight change Day 4,[2]; group MEAN,0.0 g
same,body weight change Day 7,[2]; group MEAN,0.7 g
same,body weight change Day 8,[2]; group MEAN,0.7 g
same,body weight change Day 10,[2]; group MEAN,0.8 g
same,body weight change Day 12,[2]; group MEAN,0.7 g
same,body weight change Day 14,[2]; group MEAN,1.2 g
same,body weight change Day 16,[2]; group MEAN,1.3 g
same,body weight change Day 18,[2]; group MEAN,1.6 g
same,body weight change Day 20,[2]; group MEAN,1.7 g
same,body weight change Day 22,[2]; group MEAN,1.7 g
same,body weight change Day 24,[2]; group MEAN,1.8 g
same,body weight change Day 26,[2]; group MEAN,2.4 g
same,body weight change Day 28,[2]; group MEAN,2.4 ± 0.4 g and 2.4 g
same,body weight change Day 4,[2]; individual animal,-0.2 g and 0.0 g and 0.6 g and -0.1 g and 0.3 g and -0.4 g
same,body weight change Day 7,[2]; individual animal,0.2 g and 0.7 g and 1.0 g (2×) and 0.8 g and 0.5 g
same,body weight change Day 8,[2]; individual animal,0.0 g and 1.1 g and 0.6 g and 0.7 g and 1.3 g and 0.4 g
same,body weight change Day 10,[2]; individual animal,0.1 g and 1.0 g (2×) and 0.7 g and 1.1 g and 0.8 g
same,body weight change Day 12,[2]; individual animal,0.2 g and 0.9 g and 0.4 g and 0.8 g and 1.3 g and 0.6 g
same,body weight change Day 14,[2]; individual animal,0.3 g and 1.3 g and 0.8 g (2×) and 2.0 g and 1.9 g
same,body weight change Day 16,[2]; individual animal,0.7 g and 1.3 g and 1.7 g (2×) and 1.0 g
same,body weight change Day 18,[2]; individual animal,0.9 g and 1.2 g and 2.4 g (2×) and 1.3 g
same,body weight change Day 20,[2]; individual animal,1.0 g (2×) and 1.9 g and 2.3 g and 2.5 g
same,body weight change Day 22,[2]; individual animal,1.2 g and 1.7 g and 2.1 g and 2.6 g and 1.0 g
same,body weight change Day 24,[2]; individual animal,1.3 g and 1.9 g and 2.3 g and 2.7 g and 0.6 g
same,body weight change Day 26,[2]; individual animal,1.5 g and 2.2 g and 3.3 g and 3.7 g and 1.2 g
same,body weight change Day 28,[2]; individual animal,1.7 g and 2.3 g and 2.9 g and 3.8 g and 1.4 g
same,"weight gain on Day 28, IGlar alone vs combo (in words)","[2]; IGlar 5 U/kg vs IGlar 5 U/kg & Bei 0.05 mg/kg, 4-week treatment",induced weight gain significantly higher than the combinational therapy of beinaglutide and insulin glargine
same,blood glucose based on the AUC during OGTT (in words),"[3]; Day 28, glucose 1 g/kg oral, Bei 0.1 mg/kg, IGlar 5 U/kg, or IGlar 5 U/kg & Bei 0.05 mg/kg multiple dosing",significantly reduced blood glucose based on the AUC
same,"OGTT blood glucose 0 min, MEAN","[3]; IGlar 5 U/kg, Day 28, group mean, 0 min",13.98 mM
same,"OGTT blood glucose AUC, MEAN","[3]; IGlar 5 U/kg, Day 28, group mean, 0-120 min",2390.25
same,"OGTT blood glucose 15 min, MEAN","[3]; IGlar 5 U/kg, Day 28, group mean, 15 min",27.90 mM
same,"OGTT blood glucose 30 min, MEAN","[3]; IGlar 5 U/kg, Day 28, group mean, 30 min",24.60 mM
same,"OGTT blood glucose 60 min, MEAN","[3]; IGlar 5 U/kg, Day 28, group mean, 60 min",20.04 mM
same,"OGTT blood glucose 120 min, MEAN","[3]; IGlar 5 U/kg, Day 28, group mean, 120 min",13.72 mM
same,OGTT blood glucose 0 min,"[3]; IGlar 5 U/kg, Day 28, individual animals, 0 min",16.1 mM and 9.4 mM and 7.6 mM and 15.9 mM and 20.9 mM
same,OGTT blood glucose AUC,"[3]; IGlar 5 U/kg, Day 28, individual animals, 0-120 min",2820.0 and 2205.0 and 2178.8 and 2133.0 and 2614.5
same,OGTT blood glucose 15 min,"[3]; IGlar 5 U/kg, Day 28, individual animals, 15 min",33.3 mM and 25.4 mM and 24 mM and 25.9 mM and 30.9 mM
same,OGTT blood glucose 30 min,"[3]; IGlar 5 U/kg, Day 28, individual animals, 30 min",27.9 mM and 23.4 mM and 23.1 mM and 23.3 mM and 25.3 mM
same,OGTT blood glucose 60 min,"[3]; IGlar 5 U/kg, Day 28, individual animals, 60 min",23 mM and 18.6 mM and 19 mM and 16.4 mM and 23.2 mM
same,OGTT blood glucose 120 min,"[3]; IGlar 5 U/kg, Day 28, individual animals, 120 min",17.9 mM and 13 mM and 12.9 mM and 12.1 mM and 12.7 mM
same,"fasting blood glucose, Mean",[4]; group mean,14.0 ± 2.43 mM and 14.0 mM
same,fasting blood glucose,[4]; individual animal,16.1 mM and 9.4 mM and 7.6 mM and 15.9 mM and 20.9 mM
